Data published in patent US9920295B2, “Bioreactor for isolation of rare cells and methods of use” (The Trustees of the University of Pennsylvania, priority 2012, dated 2018).
Read-outs that look alike come from different tables or passages of the source.

Experiments:
[1] = system: CD34+ cells; details: data from Boitano et al. (2010), cited from earlier work; for EC50: fitted, read-out: CD34+ cell number EC50
[2] = system: CD34+-derived cells; test: Apoptosis by cleaved caspase-3 intracellular flow cytometry and Annexin-V; type: cell-based, human; details: G-CSF 100 ng/ml; CH-223191 500 nM (4n fraction)
Method: (§1) Cells were fixed with 4% paraformaldehyde in PBS for 10 min, washed with PBS and resuspended in 0.1% saponin in HBSS (staining medium). The samples were then stained with antibodies against cytoplasmic antigens, including NMM-IIA (Sigma), NMM-IIB, phospho-NMM-IIA and caspase-3 (all from Cell Signaling Technology) for 30 min at room temperature. In some cases, cells were concurrently stained with PE anti-CD34 or anti-human CD38 for subpopulation analysis. Cells were then washed and stained with anti-rabbit or mouse secondary antibodies conjugated with Alexa 647 (Invitrogen) for 30 min, followed by analysis on FACSCalibur.

[3] = system: CD34+-derived cells (HSC, MPP, CPP); test: AHR antagonist dose-response on HSC/P subpopulation number; type: cell-based, human
Method: Freshly purified bone marrow-derived human CD34^+ cells were obtained from either the Penn Xenograft Core Facility or AllCells (Emeryville, Calif.). Cells from at least 20 different donors were used in this study. Purity of the samples (>98%) was confirmed by flow cytometry with monoclonal antibody against human CD34. All experiments were performed in HSC expansion media (StemLine, Sigma) supplemented with 1× antibiotics, 20% BIT 9500 Serum Substitute (StemCell Technologies), 2 mM […] (Gibco) and the following human recombinant cytokines: SCF (100 ng/ml) and Tpo (100 ng/ml). In some occasions, the media was also supplemented by G-CSF (100 ng/ml), epidermal growth factor (EGF, 100 ng/ml), transforming growth factor beta 1 (TGF-beta1, 100 ng/ml), erythropoietin (EPO, 1 U/ml) and interleukin-3 (IL-3, 10 ng/ml). All cytokines were purchased from R&D Systems. After cells were cultured for 4 days, they were treated with different doses of cellular contractility inhibitors, including (±)-Blebbistatin (Bleb) (EMD Biosciences) and/or CH-223191 (Sigma) for indicated durations of up to 3 days. Cells were cultured at 37° C. in 5% CO2.
Surface marker analysis for HSC/Ps was done on either a LSR II flow cytometer or FACSCalibur (Becton Dickinson). […] Cells isolated from the bone marrow stained for 1 hr with APC anti-mouse CD47 (miap301, AbD Serotec), FITC anti-human CD47 (BD Biosciences), and PE anti-human CD11b, PE anti-human CD19 (both from BD Biosciences), or PE anti-human Glycophorin A (Invitrogen). Plts and RBCs were analyzed by staining with PE anti-mouse CD41 (eBioscience) and FITC anti-human CD41 (eBioscience) for 20 min, followed by analysis on FACSCalibur on log forward and side scatter scales.

[4] = system: BM CD34+-derived cells (CD41+ MK); test: Ploidy analysis of CD34+-derived cells treated with contractility inhibitors (flow cytometry); type: cell-based, human; details: for EC50: read-out: MK polyploid cell number EC50
Method: (§2) Fresh purified bone marrow (BM)-derived humanCD34^+ cells were obtained from either the Penn Xenograft Core Facility or AllCells. Cells from at least 10 different donors were used in this study. Purity of the samples (>98%) was confirmed by flow cytometry with monoclonal antibody against human CD34 conjugated to phycoerythrin (PE). All experiments were performed in hematopoietic stem cell (HSC) expansion media (StemLine-II; Sigma) supplemented with 1× antibiotics, and the following human recombinant cytokines SCF (100 ng/mL) and Tpo (100 ng/mL). In some occasions, the media was also supplemented by G-CSF (100 ng/mL). All cytokines were purchased from R&D Systems. After cells were cultured for 4 days, they were treated with different doses of cellular contractility inhibitors, including (±)-blebbistatin (EMDBiosciences), reversine, ML-7, and Y-27632 (Sigma) for indicated durations of up to 3 days. Unfortunately, longer exposure to drug proves toxic even to polyploidy cells under the present culture conditions. Cells were then resuspended in PBS/2% FBS medium and subjected to ploidy analysis: cells were stained with CD41-FITC (BD Biosciences) at room temperature for 30 min, followed by Hoechst 33342 at 37° C. for 30 min. Then cells were stained with Annexin-V-PE (BD Biosciences) in the Annexin-V staining medium, followed by addition of 7-AAD. Stained cells were subjected to flow cytometric analysis (LSR-II; BD Biosciences): only viable cells (7-AAD^− and Hoechst 33342^+) were analyzed for ploidy. Cells with the DNA content of 8 N or higher were considered polyploid. To quantify absolute number of polyploid cells, viable cell number was counted before flow cytometry by Trypan blue exclusion, and this number was multiplied by percentages of each DNA compartment and subpopulations. Each multiplied number was then normalized by initial cell input number before drug treatment in culture.

[5] = biological target: T1, αIIbβ3 (Homo sapiens, UniProt P05106+P08514); test: Platelet activation assay, PAC-1 binding; type: cell-based; details: 10 μM, thrombin 1 U/mL
T1 construct: endogenous in cells; host or cells: platelet-like fragments from megakaryocytes cultured from human bone-marrow CD34+ cells
Method: For platelet-activation assays, platelet-sided fraction isolated from either MK culture or NSG blood was resuspended in Tyrode's buffer supplemented with Mg^2+ and Ca^2+, and incubated with indicated agonists for 15 min at 37° C., followed by staining with FITC-conjugated anti-human P-selectin or PAC-1 antibody (BD Bioscience), APC-conjugated anti-human CD41, and in the case of xenograft samples, PE-conjugated anti-mouse CD41 for 15 min at room temperature, followed by fixation with 1.5% paraformaldehyde. Antibody-stained samples were then analyzed by flow cytometry. Platelet number was evaluated by mixing each sample with a defined number (˜10,000 beads per sample) of APC-conjugated beads (BD Bioscience). The number of platelets per sample was evaluated by: number of CD41^+ events/number of APC-bead events multiplied by total known number of APC-bead added per sample.

[6] = system: NMM-IIA pS1943; test: pS1943 of NMM-IIA by phospho-specific flow cytometry; type: cell-based, human; details: under cytokine stimulation (SCF and Tpo)
Method: as §1

[7] = system: CD34+-derived MKs; test: Polyploid MK numbers on collagen-coated gels of different elasticity; type: cell-based, human
Method: as §2, with “Cells were then resuspended in PBS/2% FBS medium and subjected to ploidy analysis: cells were stained with CD41-FITC (BD Biosciences) at room temperature for 30 min, followed by Hoechst 33342 at 37° C. for 30 min. Then cells were stained with Annexin-V-PE (BD Biosciences) in the Annexin-V staining medium, followed by addition of 7-AAD.” left out, “Cells with the DNA content of 8 N or higher were considered polyploid.” left out, “Each multiplied number was then normalized by initial cell input number before drug treatment in culture.” left out

[8] = Homo sapiens, dose-response, n≥3 donors

T1 sequence (P08514 32-887 limits assumed): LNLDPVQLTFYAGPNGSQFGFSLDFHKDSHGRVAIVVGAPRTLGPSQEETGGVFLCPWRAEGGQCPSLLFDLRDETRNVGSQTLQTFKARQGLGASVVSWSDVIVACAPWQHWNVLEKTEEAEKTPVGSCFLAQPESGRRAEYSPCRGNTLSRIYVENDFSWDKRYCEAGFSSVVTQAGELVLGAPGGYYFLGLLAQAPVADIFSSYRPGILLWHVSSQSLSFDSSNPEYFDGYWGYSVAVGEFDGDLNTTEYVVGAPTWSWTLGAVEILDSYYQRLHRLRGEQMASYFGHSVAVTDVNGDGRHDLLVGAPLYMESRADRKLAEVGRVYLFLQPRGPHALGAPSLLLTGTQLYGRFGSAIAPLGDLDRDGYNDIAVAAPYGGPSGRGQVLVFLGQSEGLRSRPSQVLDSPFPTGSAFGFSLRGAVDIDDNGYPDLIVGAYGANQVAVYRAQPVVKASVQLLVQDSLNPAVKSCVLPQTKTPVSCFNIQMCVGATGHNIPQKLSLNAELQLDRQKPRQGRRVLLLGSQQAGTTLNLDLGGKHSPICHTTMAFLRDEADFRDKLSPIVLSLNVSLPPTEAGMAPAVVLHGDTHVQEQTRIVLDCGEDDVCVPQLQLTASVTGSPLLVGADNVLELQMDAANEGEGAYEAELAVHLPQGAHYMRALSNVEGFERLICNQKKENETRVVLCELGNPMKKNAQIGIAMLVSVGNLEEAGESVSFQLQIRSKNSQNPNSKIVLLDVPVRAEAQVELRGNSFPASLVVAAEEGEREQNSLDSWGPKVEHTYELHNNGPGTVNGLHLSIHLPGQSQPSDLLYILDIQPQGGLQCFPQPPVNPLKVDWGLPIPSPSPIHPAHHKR
T1 sequence (P08514 891-1039 partner limits assumed): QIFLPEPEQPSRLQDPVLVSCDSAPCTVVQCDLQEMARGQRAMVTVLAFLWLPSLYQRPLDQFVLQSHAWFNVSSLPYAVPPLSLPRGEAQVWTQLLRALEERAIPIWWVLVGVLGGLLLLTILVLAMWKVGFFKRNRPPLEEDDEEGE
T1 sequence (P05106 27-788): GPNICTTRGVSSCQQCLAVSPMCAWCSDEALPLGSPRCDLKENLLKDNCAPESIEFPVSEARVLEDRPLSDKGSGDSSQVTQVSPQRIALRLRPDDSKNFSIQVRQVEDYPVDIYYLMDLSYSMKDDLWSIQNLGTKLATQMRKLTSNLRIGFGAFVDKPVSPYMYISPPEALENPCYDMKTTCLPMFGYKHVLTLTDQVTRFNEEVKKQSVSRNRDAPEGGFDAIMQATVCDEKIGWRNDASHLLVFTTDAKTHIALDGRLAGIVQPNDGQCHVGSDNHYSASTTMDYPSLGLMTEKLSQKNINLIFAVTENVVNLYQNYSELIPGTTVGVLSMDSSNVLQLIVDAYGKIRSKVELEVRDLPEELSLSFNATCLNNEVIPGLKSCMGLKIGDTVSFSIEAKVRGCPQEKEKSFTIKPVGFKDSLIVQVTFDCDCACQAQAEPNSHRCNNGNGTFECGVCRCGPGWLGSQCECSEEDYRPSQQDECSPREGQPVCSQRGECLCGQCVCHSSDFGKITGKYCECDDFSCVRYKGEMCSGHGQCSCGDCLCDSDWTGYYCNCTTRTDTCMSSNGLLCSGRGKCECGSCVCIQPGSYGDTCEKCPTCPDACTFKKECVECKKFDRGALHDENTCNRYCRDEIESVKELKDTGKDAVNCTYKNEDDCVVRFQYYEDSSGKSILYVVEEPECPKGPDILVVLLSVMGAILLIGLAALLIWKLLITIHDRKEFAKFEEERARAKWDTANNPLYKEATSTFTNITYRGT

In the case of `CC(C)n1cnc2c(NCCc3ccc(O)cc3)nc(-c3csc4ccccc34)nc21` [SR1], the EC50 [1] is given as 47.4 nM.

In the case of `O=c1cc(-c2ccccc2)oc2c1ccc1ccccc12` [a-napthoflavone, α-napthoflavone], the EC50 [1] is listed as 177 nM and the “concentration showing toxic effect” value [1] is listed as at least 1000 nM.

In the case of `Cc1ccccc1N=Nc1ccc(NC(=O)c2ccnn2C)c(C)c1` [CH-223191], the “viability of untreated CD34+ and CD34− cells” value [2] is given as “improves the viability”, the EC50 [1] is given as 74 nM and the HSC/P ratio ([3]; dual drug treatment with Bleb) is given as “almost doubled”. The EC50 ([3]; untreated and Bleb, for both, read-out: CPP number EC50) was 750 nM, the EC50 ([3]; untreated and Bleb, for both, read-out: MPP number EC50) was 114 nM and the EC50 ([3]; with 20 μM Bleb, 3 days, read-out: HSC number EC50) was 211 nM. It also gave an EC50 ([3]; without Bleb, 3 days, read-out: HSC number EC50) of 158 nM.

Work on `c1nc2nc(Nc3ccc(N4CCOCC4)cc3)nc(NC3CCCCC3)c2[nH]1` [reversine] yielded an EC50 [4, 8] of 500 nM, an IC50 ([4]; Homo sapiens, read-out: MK cell number in 2 N IC50) of 260 nM and an IC50 ([4]; Homo sapiens, read-out: MK cell number in 4 N IC50) of 500 nM.

In the case of `CCCCS(=O)(=O)N[C@@H](Cc1ccc(OCCCCC2CCNCC2)cc1)C(=O)O` [Tirofiban], the “inhibition of agonist-induced PAC-1 binding” value [5] is reported as “inhibits as expected”.

For “EGF: epidermal growth factor, human recombinant cytokine (NSDSECPLSHDGYCLHDGVCMYIEALDKYACNCVVGYIGERCQYRDLKWWELR; UniProt P01133 971-1023, looked up)”, the “effect on pS1943 level” value [6] was “does not show a significant effect”.

`O=S(=O)(c1cccc2c(I)cccc12)N1CCCNCC1` [ML7, ML-7] gave an IC50 ([4]; 2 N, read-out: MK cell number in 2 N IC50) of 500 nM, an IC50 ([4]; 4 N, read-out: MK cell number in 4 N IC50) of 500 nM and an IC50 ([4]; dose-response, n≥3 donors, read-out: MK polyploid cell number IC50) of 1040 nM.

`C[C@@H](N)[C@H]1CC[C@H](C(=O)Nc2ccncc2)CC1` [Y-27632] showed an EC50 [4, 8] of 140 nM.

For “TGF-beta 1: transforming growth factor beta 1, human recombinant cytokine”, the “effect on pS1943 level” value [6] was “inhibits the reduction of pS1943 level”.

For collagen, the “polyploid MK numbers on stiff gels, IC50 in collagen concentration” value ([7]; blebbistatin-treated cells) was about 0.3 ng/cm^2 and the “polyploid MK numbers on stiff gels, EC50 in collagen concentration” value ([7]; untreated cells) was about 200 ng/cm^2.
